Measurements published in US20230372481A1 (priority 2020, published 2023).

Legend:
[1] = test system: PBMCs of COVID-19 convalescent donors; experiment: Proliferation assay with CFSE in the presence of dexamethasone; type: cell-based, human; conditions: dexamethasone 10-7-10-6 M
Description: Around 2 million cells where incubated in a P24 plaque in 1 ml of supplemented medium with 1.5% v/v PHA (Phytohemagglutinin M form. Ref. 10576015), Mouse Anti-Human CD3 (Clone OKT3; BD Biosciences, Ref: 566685; final concentration of 0.05 μg/ml) and CD28/CD49d Purified (Clone L293 L25 RUO GMP) (BD Biosciences. Ref. 347690; final concentration 5 μg/ml).
The cells where incubated at 37° C. for 3 days and finally a CFSE proliferation assay (CellTrace™ CFSE Cell Proliferation Kit, Invitrogen, Ref.) was performed to determine if high doses of the drug decrease the division index of the cells. The cells were stained with CFSE and the different cell surface antibodies. Then, cell acquisition was performed using a Navios cytometer (Beckman Coulter), acquiring an average of 200,000 cells. The analysis was made using FlowJo 10.7.1 (FlowJoLLC). N=4 mean of the results was performed.

[2] = test system: PBMCs of COVID-19 convalescent donors; experiment: Secretion of IFNγ in the presence of dexamethasone with peptivators for SARS-COV-2; type: cell-based, human; conditions: three SARS-CoV-2 peptides
Description: Then they were mixed with PepTivators for SARS-CoV2 (Miltenyi Biotec. PepTivator Prot_M, Ref. 130-126-702; PepTivator Prot_N, Ref. 130-126-698 & PepTivator Prot_S, Ref. 130-126-700. Final concentration of 0.6 nmol/ml) for 5 hours at 37° C.; then IFNγ production of T cells were measured as before using the Miltenyi Biotec IFNg Detection Kit, Ref: 130-054-202. In all cases there was a basal condition, without peptivators and the cells where previously incubated with mouse Anti-Human CD3 (Clone OKT3; BD Biosciences, Ref:
566685; final concentration of 2.8 μg/ml and CD28/CD49d Purified (Clone L293 L25 RUO GMP) (BD Biosciences. Ref. 347690; final concentration 5 μg/ml). Cell acquisition was performed using a Navios cytometer (Beckman Coulter), acquiring an average of 200,000 cells. The analysis was made using FlowJo 10.7.1 (FlowJoLLC). N=3, mean of the results was performed.

[3] = DEX 10^-7M, 72 hours (D3), listed as dexamethasone

C[C@@H]1C[C@H]2[C@@H]3CCC4=CC(=O)C=C[C@]4(C)[C@@]3(F)[C@@H](O)C[C@]2(C)[C@@]1(O)C(=O)CO [DEX, dexamethasone]
Reduction of proliferation within the CD45RA− memory T cells [1]: 0-5%
Percentage of IFNg, CD45RA+ ([2]; DEX 10^-6M, 24 hours (D1)): 0.00%
Percentage of IFNg, CD45RA+CD3+ ([2]; DEX 10^-6M, 24 hours (D1)): 0.00%
Percentage of IFNg, CD45RA+CD3+CD4+ ([2]; DEX 10^-6M, 24 hours (D1)): 0.32%
Percentage of IFNg, CD45RA+CD3+CD8+ ([2]; DEX 10^-6M, 24 hours (D1)): 0.00%
Percentage of IFNg, CD45RA− ([2]; DEX 10^-6M, 24 hours (D1)): 2.0%
Percentage of IFNg, CD45RA− CD3+ ([2]; DEX 10^-6M, 24 hours (D1)): 0.7%
Percentage of IFNg, CD45RA− CD3+CD4+ ([2]; DEX 10^-6M, 24 hours (D1)): 1.1%
Percentage of IFNg, CD45RA− CD3+CD8+ ([2]; DEX 10^-6M, 24 hours (D1)): 0.1%
Percentage of IFNg, CD45RA+ ([2]; DEX 10^-6M, 72 hours (D3)): 0.61%
Percentage of IFNg, CD45RA+CD3+ ([2]; DEX 10^-6M, 72 hours (D3)): 1.06%
Percentage of IFNg, CD45RA+CD3+CD4+ ([2]; DEX 10^-6M, 72 hours (D3)): 1.43%
Percentage of IFNg, CD45RA+CD3+CD8+ ([2]; DEX 10^-6M, 72 hours (D3)): 1.29%
Percentage of IFNg, CD45RA− ([2]; DEX 10^-6M, 72 hours (D3)): 2.68%
Percentage of IFNg, CD45RA− CD3+ ([2]; DEX 10^-6M, 72 hours (D3)): 3.27%
Percentage of IFNg, CD45RA− CD3+CD4+ ([2]; DEX 10^-6M, 72 hours (D3)): 3.04%
Percentage of IFNg, CD45RA− CD3+CD8+ ([2]; DEX 10^-6M, 72 hours (D3)): 4.50%
Percentage of IFNg, CD45RA+ ([2]; DEX 10^-7M, 24 hours (D1)): 0.27%
Percentage of IFNg, CD45RA+CD3+ ([2]; DEX 10^-7M, 24 hours (D1)): 0.40%
Percentage of IFNg, CD45RA+CD3+CD4+ ([2]; DEX 10^-7M, 24 hours (D1)): 0.11%
Percentage of IFNg, CD45RA+CD3+CD8+ ([2]; DEX 10^-7M, 24 hours (D1)): 1.77%
Percentage of IFNg, CD45RA− ([2]; DEX 10^-7M, 24 hours (D1)): 5.9%
Percentage of IFNg, CD45RA− CD3+ ([2]; DEX 10^-7M, 24 hours (D1)): 1.7%
Percentage of IFNg, CD45RA− CD3+CD4+ ([2]; DEX 10^-7M, 24 hours (D1)): 2.4%
Percentage of IFNg, CD45RA− CD3+CD8+ ([2]; DEX 10^-7M, 24 hours (D1)): 2.6%
Percentage of IFNg, CD45RA+ ([2]; DEX 10^-7M, 72 hours (D3)): 2.08%
Percentage of IFNg, CD45RA+CD3+ ([2]; DEX 10^-7M, 72 hours (D3)): 5.12%
Percentage of IFNg, CD45RA+CD3+CD4+ ([2]; DEX 10^-7M, 72 hours (D3)): 3.29%
Percentage of IFNg, CD45RA+CD3+CD8+ ([2]; DEX 10^-7M, 72 hours (D3)): 3.91%
Percentage of IFNg, CD45RA− ([2]; DEX 10^-7M, 72 hours (D3)): 7.21%
Percentage of IFNg, CD45RA− CD3+ ([2]; DEX 10^-7M, 72 hours (D3)): 8.03%
Percentage of IFNg, CD45RA− CD3+CD4+ ([2]; DEX 10^-7M, 72 hours (D3)): 7.06%
Percentage of IFNg, CD45RA− CD3+CD8+ ([2]; DEX 10^-7M, 72 hours (D3)): 8.67%
Percentage of IFNg, CD45RA− [2, 3]: 2.08%
Percentage of IFNg, CD45RA− CD3+ [2, 3]: 5.12%
Percentage of IFNg, CD45RA− CD3+CD4+ [2, 3]: 3.29%
Percentage of IFNg, CD45RA− CD3+CD8+ [2, 3]: 3.91%
